In ChEMBL document CHEMBL1136880, “Discovery of N-aryl-9-oxo-9H-fluorene-1-carboxamides as a new series of apoptosis inducers using a cell- and caspase-based high-throughput screening assay. 1. Structure-activity relationships of the carboxamide group” (Bioorg Med Chem Lett, 2009):
pEC50, pIC50: −log10 of the molar value. ≈ marks a conversion by molar mass, not a printed value. Calls of active or inactive are those of the source. The calls are words filed in the database; no cut-off is given here.

Tests used:
[1] = Inhibition of tubulin polymerization by DAPI staining method; settings: for pIC50: read-out: IC50
[2] = test system: SNU-398; test: Induction of apoptosis in human SNU398 cells after 48 hrs; format: functional, cell-based; settings: SNU-398, 48 h
[3] = test system: HCT-116; test: Induction of apoptosis in human HCT116 cells after 48 hrs; format: functional, cell-based; settings: HCT-116, 48 h
[4] = test system: T47D; test: Induction of apoptosis in human T47D cells after 48 hrs; format: functional, cell-based
[5] = test system: T47D; test: Growth inhibition of human T47D cells after 48 hrs; format: functional
[6] = test system: HCT-116; test: Growth inhibition of human HCT116 cells after 48 hrs; format: functional; settings: HCT-116, 48 h
[7] = test system: SNU-398; test: Growth inhibition of human SNU398 cells after 48 hrs; format: functional; settings: SNU-398, 48 h
[8] = test system: HCT-116; test: Cell cycle arrest in human HCT116 cells assessed as accumulation at subG1 phase at 2 uM after 24 hrs by flow cytometry; format: functional
[9] = test system: HCT-116; test: Cell cycle arrest in human HCT116 cells assessed as accumulation at S phase at 2 uM after 24 hrs by flow cytometry; format: functional
[10] = Solubility in buffer solution containing ethanol:Cremophor:D5W of 12.5:12.5:75; format: physicochemical
[11] = test system: HCT-116; test: Cell cycle arrest in human HCT116 cells assessed as accumulation at G1 phase at 2 uM after 24 hrs by flow cytometry; format: functional
[12] = test system: HCT-116; test: Cell cycle arrest in human HCT116 cells assessed as accumulation at G2/M phase at 2 uM after 48 hrs by flow cytometry; format: functional
[13] = test system: HCT-116; test: Cell cycle arrest in human HCT116 cells assessed as accumulation at G1 phase at 2 uM after 48 hrs by flow cytometry; format: functional
[14] = test system: HCT-116; test: Cell cycle arrest in human HCT116 cells assessed as accumulation at S phase at 2 uM after 48 hrs by flow cytometry; format: functional
[15] = test system: HCT-116; test: Cell cycle arrest in human HCT116 cells assessed as accumulation at G2/M phase at 2 uM after 24 hrs by flow cytometry; format: functional
[16] = test system: HCT-116; test: Cell cycle arrest in human HCT116 cells assessed as accumulation at subG1 phase at 2 uM after 48 hrs by flow cytometry; format: functional

Structure (SMILES) | pEC50 [2] | pEC50 [3] | pEC50 [4] | also measured
CC[C@]1(O)C[C@@H]2CN(CCc3c([nH]c4ccccc34)[C@@](C(=O)OC)(c3cc4c(cc3OC)N(C)[C@H]3[C@@](O)(C(=O)OC)[C@H](OC(C)=O)[C@]5(CC)C=CCN6CC[C@]43[C@@H]65)C2)C1 [VINBLASTINE] | – | – | – | pIC50 [1]: 6.30
Cc1ccccc1C(=O)Nc1cccc2c1C(=O)c1ccccc1-2 | 5.89 | 5.66 | 5.68 | –
O=C(Nc1ccccc1O)c1cccc2c1C(=O)c1ccccc1-2 | < 5.00 | < 5.00 | < 5.00 | –
O=C(Nc1ccccc1Cl)c1cccc2c1C(=O)c1ccccc1-2 | 6.39 | 6.25 | 6.33 | GI50 [5]: 0.23 µM; GI50 [6]: 0.54 µM; GI50 [7]: 0.53 µM
Cc1ccccc1N(C)C(=O)c1cccc2c1C(=O)c1ccccc1-2 | < 5.00 | < 5.00 | < 5.00 | –
O=C(Nc1cccnc1)c1cccc2c1C(=O)c1ccccc1-2 | < 5.00 | < 5.00 | < 5.00 | –
COc1ccccc1CNC(=O)c1cccc2c1C(=O)c1ccccc1-2 | < 5.00 | < 5.00 | < 5.00 | –
CN(C)Cc1ccccc1NC(=O)c1cccc2c1C(=O)c1ccccc1-2 | 6.15 | 6.03 | 5.85 | –
CN(C(=O)c1cccc2c1C(=O)c1ccccc1-2)c1ccccc1-n1cccn1 | < 5.00 | < 5.00 | < 5.00 | –
O=C(NCc1ccccc1Cl)c1cccc2c1C(=O)c1ccccc1-2 | < 5.00 | < 5.00 | < 5.00 | –
O=C(Nc1ccccc1Br)c1cccc2c1C(=O)c1ccccc1-2 | 5.66 | 5.57 | 5.64 | –
O=C(Nc1ccccc1N1CCCCC1)c1cccc2c1C(=O)c1ccccc1-2 | 5.68 | 5.59 | 5.55 | –
COc1ccc(NC(=O)c2cccc3c2C(=O)c2ccccc2-3)cc1 | < 5.00 | < 5.00 | 5.43 | –
Cc1cccc(NC(=O)c2cccc3c2C(=O)c2ccccc2-3)c1 | < 5.00 | < 5.00 | < 5.00 | –
O=C(Nc1ccccc1)c1cccc2c1C(=O)c1ccccc1-2 | < 5.00 | < 5.00 | 5.36 | –
O=C(Nc1ccccc1N1CCOCC1)c1cccc2c1C(=O)c1ccccc1-2 | 5.41 | 5.28 | 5.28 | –
Cc1ccc(NC(=O)c2cccc3c2C(=O)c2ccccc2-3)cc1 | < 5.00 | < 5.00 | 5.34 | –
N#Cc1ccccc1NC(=O)c1cccc2c1C(=O)c1ccccc1-2 | < 5.00 | < 5.00 | < 5.00 | –
O=C(Nc1ccccc1-n1ccnc1)c1cccc2c1C(=O)c1ccccc1-2 | < 5.00 | < 5.00 | < 5.00 | –
Cc1cccnc1NC(=O)c1cccc2c1C(=O)c1ccccc1-2 | < 5.00 | < 5.00 | < 5.00 | –
O=C(Nc1ccccc1-n1cccc1)c1cccc2c1C(=O)c1ccccc1-2 | 5.26 | 5.20 | 5.23 | –

Structure (SMILES) | pEC50 [2] | pEC50 [3] | pEC50 [4] | also measured
Cc1ccncc1NC(=O)c1cccc2c1C(=O)c1ccccc1-2 | < 5.00 | < 5.00 | < 5.00 | –
O=C(Nc1ccccc1CBr)c1cccc2c1C(=O)c1ccccc1-2 | 5.14 | 4.97 | 5.33 | –
[N-]=[N+]=Nc1ccccc1NC(=O)c1cccc2c1C(=O)c1ccccc1-2 | 5.36 | 5.44 | 5.46 | –
O=C(Nc1ccccc1[N+](=O)[O-])c1cccc2c1C(=O)c1ccccc1-2 | 5.59 | 5.26 | 5.60 | –
CN1CCN(Cc2ccccc2NC(=O)c2cccc3c2C(=O)c2ccccc2-3)CC1 | < 5.00 | < 5.00 | < 5.00 | –
O=C(Nc1ccccc1-n1cccn1)c1cccc2c1C(=O)c1ccccc1-2 | 5.96 | 5.89 | 5.85 | Activity [8]: Active; Activity [9]: Active; GI50 [5]: 0.16 µM; solubility [10]: 6100 µg/mL (≈ 16.7 mM); Activity [11]: Active; Activity [12]: Active; Activity [13]: Active; Activity [14]: Active; GI50 [6]: 1.1 µM; GI50 [7]: 0.78 µM; Activity [15]: Active; IC50 [1]: Not Active; Activity [16]: Active
O=C(Nc1ccccc1F)c1cccc2c1C(=O)c1ccccc1-2 | < 5.00 | < 5.00 | 5.74 | –
O=C(Nc1ccccc1OCF)c1cccc2c1C(=O)c1ccccc1-2 | 5.82 | 5.64 | 6.32 | –
O=C(Nc1ccccc1-c1nnn[nH]1)c1cccc2c1C(=O)c1ccccc1-2 | < 5.00 | < 5.00 | < 5.00 | –
COc1cc2c(c(OC)c1OC)-c1ccc(OC)c(=O)cc1[C@@H](NC(C)=O)CC2 [COLCHICINE] | – | – | – | pIC50 [1]: 6.30
COc1ccccc1NC(=O)c1cccc2c1C(=O)c1ccccc1-2 | 5.31 | 5.12 | 6.21 | –
Cc1ccccc1NC(=O)c1cccc2c1C(=O)c1ccccc1-2 | 6.19 | 5.96 | 6.01 | Activity [8]: 8%; Activity [9]: 10%; GI50 [5]: 0.18 µM; Activity [11]: 32%; Activity [12]: 16%; Activity [13]: 29%; Activity [14]: 11%; GI50 [6]: 0.36 µM; GI50 [7]: 0.3 µM; Activity [15]: 48%; IC50 [1]: Not Active; Activity [16]: 41%
CCOc1ccccc1NC(=O)c1cccc2c1C(=O)c1ccccc1-2 | 6.02 | 5.80 | 5.54 | GI50 [5]: 0.45 µM; GI50 [6]: 0.4 µM; GI50 [7]: 0.27 µM
Cc1cccc(C)c1NC(=O)c1cccc2c1C(=O)c1ccccc1-2 | < 5.00 | < 5.00 | < 5.00 | –
O=C(Nc1ccccn1)c1cccc2c1C(=O)c1ccccc1-2 | < 5.00 | < 5.00 | < 5.00 | –
O=C(Nc1nccs1)c1cccc2c1C(=O)c1ccccc1-2 | < 5.00 | < 5.00 | < 5.00 | –
Nc1ccccc1NC(=O)c1cccc2c1C(=O)c1ccccc1-2 | < 5.00 | < 5.00 | < 5.00 | –
CN(C)c1ccccc1NC(=O)c1cccc2c1C(=O)c1ccccc1-2 | 6.08 | 5.92 | 6.01 | solubility [10]: 6100 µg/mL (≈ 17.8 mM)
CC1CCCCC1NC(=O)c1cccc2c1C(=O)c1ccccc1-2 (stereo not given) | < 5.00 | < 5.00 | < 5.00 | –
COC(=O)c1ccccc1NC(=O)c1cccc2c1C(=O)c1ccccc1-2 | 6.47 | 6.28 | 5.62 | GI50 [5]: 0.18 µM; GI50 [6]: 0.48 µM; GI50 [7]: 0.31 µM
O=C(Nc1ccccc1-c1ccccc1)c1cccc2c1C(=O)c1ccccc1-2 | 5.77 | 5.74 | 5.77 | GI50 [5]: 0.21 µM; GI50 [6]: 0.58 µM; GI50 [7]: 0.35 µM
